From patent publication US9446017B2, “Compositions and methods for treating herpes simplex virus” (Augusta University Research Institute, Inc., priority 2005, dated 2016) come the findings set out here.

“And” between values parts separate entries of the source, which are not always exact repeats. Equal values may be shown once. “Also recorded” adds a separate entry of the source.

The subject of series [1] is HSV1. The series can be described thus: Viral titer study using plaque assay, HSV virions pre-treated with polyphenol, Vero cells. It counts as cell-based. On the procedure:
Vero cells were plated on 6 well plates and allowed to reach confluence. HSV virions were treated for 1 hour with the respective concentration of polyphenols (12.5, 25, 50, 75, 100 μM) prior to cell infection. Cells were then infected with HSV and allowed to adsorb for 1 hour. Viruses that had not been absorbed were then aspirated. Plates were then overlaid with a nutrient medium-containing agar. Plaques were visualized by staining cells with crystal violet, observed, and counted within 50 hours.
Viral titer was determined to study the effect of 50 μM of EGCG and EGCG-ester on the viral particle production by using plaque assay. Serial dilutions of viral lysates were performed from 10^−1 to 10^−7 and cells were then infected respectively with the dilutions.
In order to obtain the minimum inhibitory concentration of EGCG-ester on HSV1, different concentrations (12.5, 25, 50, 75 μM) of EGCG-ester were used at lower dilution of viral lysate (10^−1 and 10^−2).

Series [2] relates to Vero cells. Nature of the series: Cell viability assay, trypan blue and hemocytometer direct cell count. The settings on record: for Dead cells / Live cells: FIG. 1 axis Vero cells/ml. The procedure: Vero cells were plated in 6 well plates and after a period of 24 hours different concentrations of EGCG or EGCG-ester (12.5, 25, 50, 75, 100 μM) were added to each well, respectively. After one hour, the polyphenols were aspirated and the cells were washed with PBS. DMEM media was put back into each well and cells were incubated for 24 hrs. Cells were then counted using a hemocytometer and trypan blue which stains the dead cells blue and leaves the live cells white.
The cell viability was determined by using trypan blue and hemacytometer direct cell count to detect the effect of EGCG-ester on Vero cells.

Series [3] has as its system Vero cells. The series can be described thus: Cytotoxicity assay, morphological and proliferation changes by microscope. As to conditions: for change of cell morphology: 12.5 to 75 μM; for maximum nontoxic concentration: Vero cells; for effect on the cells: higher concentration. It counts as cell-based, green monkey. On the procedure:
Cells were studied for morphological and proliferation changes 48 hrs later using an ACCU-Scope 3002 microscope with a camera attached. […] Cells were studied for morphological and proliferation changes 24 hrs later using an ACCU-Scope 3002 microscope with a camera attached. In order to determine the proper concentrations of EGCG and EGCG-ester to be used for treating HSV1, the effect of polyphenols on the cells were studied. […] In this experiment, the polyphenols were added at the same time as the cells were plated and were not removed subsequently. The effect of different concentrations of EGCG-ester on Vero cells was also observed at 24 hrs. […] EGCG-ester was then aspired, and cells were observed 24 hours later.

Series [4] relates to HSV1. The series can be described thus: Fluorescence microscopy of GFP-HSV1 lytic cycle in Vero cells. The settings on record: for virus replication and formation of virions: virus treated with 100 μM. The series is classed as cell-based. The procedure:
Cells were grown on glass cover slips and allowed to reach confluence. They were then infected with either control HSV or previously treated HSV for 1 hour. Time course studies were performed in which the virus was allowed to adsorb for 1 hour and then aspirated. Cells were washed with PBS and media was added to each well. After a period of 8, 10, and 12 hours, cells were then fixed with a 1:1 acetone and methanol solution and visualized under a Zeiss Axiovision fluorescence microscope using differential interference contrast settings.
HSV1/Vero cells were used as positive controls and Vero cells were used as negative control. 75 μM EGCG ester-HSV1/Vero cells were also monitored and compared to controls. GFP-HSV1, DAPI stained nucleus and lysosome stain were used to identify cytopathic effects on Vero cells. The course study was performed in triplicates.

For series [5], the system named is HSV1. The series can be described thus: Real time PCR of HSV1 glycoprotein D. It counts as cell-based. The settings on record: for fold difference in the amount of glycoprotein D DNA vs HSV1/Vero: Ct based; for inhibits HSV1: FIG. 10. The procedure: A set of primer that primes HSV1 glycoprotein D was designed for use in Real time polymerase chain reaction. This set includes 5″-[…]-3′ (SEQ ID NO:20) for the forward and 5′[…]-3′ (SEQ ID NO:21) for the reverse. Each tube (except the negative controls-no DNA) contained […] of Fast SYBR green master mix (ABI Fast SYBR Green Master Mix), 1 μL of forward primer, 1 μL of reverse primer, […] of genomic DNA and 6 μL of […]. The samples were run on an ABI StepOnePlus Real-Time PCR System. The Run methods were: a holding stage at 95° C. for 5 minutes followed by 40 cycles of denaturation at 95° C. for 1 minute, annealing at 60° C. for 1 minute and extension at 72° C. for 30 seconds. Next, the melting curve stage included 95° C. for 15 seconds, followed by 60° C. for 1 minute, and 95° C. for 15 seconds.
Cells were grown on 60 mm plates and allowed to reach confluency. Cells were then infected with HSV I treated and HSV1 non-treated for 1 hour at 37° C. and 5% CO2. After absorption time, cells were washed with PBS and media was added to the plates. After 12 hours, cells were trypsinized and DNA was extracted using the DNeasy Blood and Tissue Handbook (Qiagen 2006). DNA concentration was then measured by using a Nanodrop Specrophotometer.
The process of real time PCR works by collecting fluorescence data at the end of each cycle of the reaction. The SYBR green dye used in the experiment binds to the double stranded PCR product causing the PCR product to fluoresce. As the reaction continues the instrument recalls the threshold for each sample. The threshold cycle (Ct) is the critical cycle at which the first significance increase in fluorescence is detected. Once the PCR cycles ended, the data were collected and the Ct values for each of the samples were analyzed and the relative quantity (RQ) of fluorescence was reported. The standard for comparing Ct values is that a difference in one Ct is equivalent to a two-fold difference in the amount of DNA. […] of DNA was used for all samples; cells only, HSV1/Vero, and EGCG-ester HSV1/Vero.
(In general: Real-time PCR tracks product formation cycle by cycle.)

Setting [6] is: 100 μM, Vero cells, replicate counts.
Where [7] appears, read: 75 μM, 8 to 12 hours post infection.

Consider `O=C(O[C@@H]1Cc2c(O)cc(O)cc2O[C@@H]1c1cc(O)c(O)c(O)c1)c1cc(O)c(O)c(O)c1` [EGCG, (−)-epigallocatechin-3-gallate, reference compound], for which, in series [1] (50 μM), the “fold decrease in titer / plaque formation vs HSV1/Vero” value amounted to 10 fold. For the same compound, the viral titer in series [1] (HSV1 treated with 50 μM polyphenol before infection of Vero cells) was 1×10^5 PFU/ml. Moreover, in series [2] (setting [6]), the Cells is 167 and 292 and 347; the Cells dead was 119 and 134 and 184. The morphological changes entry in series [3] (12.5-100 μM, added when cells were plated, not removed, observed at 48 hrs) is on record as “no morphological changes”. Moreover, in series [3], the “change of cell morphology” value is listed as “do not induce a change cell morphology”, the maximum nontoxic concentration is 75 µM and the “effect on the cells” value is reported as “not significantly affected”. In addition, the “virus replication and formation of virions” value in series [4] was “not able to replicate and form more virions”. In series [5], the “fold difference in the amount of glycoprotein D DNA vs HSV1/Vero” value is 32 fold and the “inhibits HSV1” value is recorded as 95%.

Consider `CCCCCCCCCCCCCCCC(=O)Oc1c(O)cc([C@H]2Oc3cc(O)cc(O)c3C[C@H]2OC(=O)c2cc(O)c(O)c(O)c2)cc1O` [EGCG-ester], for which the “reduction of HSV1 ability to form plaques” value in series [1] (50 μM EGCG-ester and above, viral lysate dilution 10^−1 and 10^−2) was over 99%. Also, the “plaque (PFU) formation” value in series [1] (50 μM and above) is “no plaques observed; also recorded: completely inhibits PFU formation”. Further, in series [1] (50 μM, viral lysate dilutions 10^−1 to 10^−7), the plaque formation entry was “no plaque formation”. In series [2] (12.5 μM), the “% of death” value was 10%, the Dead cells was found to be 2.7E+06 and the Live cells is recorded as 2.56E+07. Moreover, in series [2] (25 μM), the “% of death” value was 10%, the Dead cells worked out at 2.95E+06 and the Live cells came out at 2.72E+07. Further, in series [2] (50 μM), the “% of death” value was 10%, the Dead cells is 2.90E+06 and the Live cells is recorded as 2.89E+07. Also, in series [2] (75 μM), the “% of death” value is given as 10%, the Dead cells amounted to 1.70E+06 and the Live cells was found to be 2.71E+07. The maximum nontoxic concentration in series [2] (Vero cells) was determined as 75 µM. Also, the “percentage of cell death” value in series [2] (increasing concentration, compared to control) was “not changed; also recorded: did not change much”. Besides, the cell morphology entry in series [3] (100 μM, added when cells were plated, not removed, 48 hrs) was “affected to a certain extent”. The cell morphology entry in series [3] (12.5-100 μM for 1 hour on cells plated 24 hours, observed 24 hours later) was “not greatly affected”. Moreover, in series [3], the “change of cell morphology” value is on record as “do not induce a change cell morphology”, the maximum nontoxic concentration was found to be 75 µM and the “effect on the cells” value is “not significantly affected”. Moreover, in series [4] (setting [7]), the “inhibition of HSV1 infections” value is “able to inhibit HSV1 infections” and the “visible viral particles in infected cells” value was “almost no virions”. For the same compound, the “GFP expression in green fluorescence images” value in series [4] (75 μM, 8 hrs post infection) is listed as “almost none”. Moreover, the “virus replication and formation of virions” value in series [4] was “not able to replicate and form more virions”. Also, in series [5], the “fold difference in the amount of glycoprotein D DNA vs HSV1/Vero” value is 256 fold and the “inhibits HSV1” value was found to be 99.46%.
